Measured values published in article PMC4986685 (Drug Design, Development and Therapy, 2016).

What was measured:
[1] = cited from earlier work
[2] = Safety assessment; format: in vivo, human; settings: 36 healthy male subjects, 7-day treatments
[3] = cited from earlier work; remark: listed apart in the source
[4] = tested on: active GLP-1, glucose, glucagon, insulin, and C-peptide; experiment: Oral glucose tolerance test; format: in vivo, human; settings: significantly smaller than baseline
[5] = tested on: HbA1c; settings: 5 mg dose daily for 12 weeks, patients with type 2 DM with inadequate glycemic control with diet and exercise alone; cited from earlier work

| Structure (SMILES) | Fraction eliminated by renal excretion [1] | Number of subjects with AEs possibly related to the study drug(s) [2] [subjects] | Half-life ([3]; after a single administration, doses between 1.25 and 60 mg, first-in-human study) [h] | Dose dependence of pharmacokinetics ([3]; doses between 1.25 and 60 mg, single administration) | Tolerability ([3]; first-in-human study, single administration) | AUC of glucose during OGTT relative to baseline [4] | Number of AEs possibly related to the study drug(s) ([2]; all AEs mild) [AEs] | Reduction of mean HbA1c [5] [% point] |
| --- | --- | --- | --- | --- | --- | --- | --- | --- |
| CN(C)C(=N)N=C(N)N [Metformin, reference compound] | ~ 90 % of absorbed metformin | 24 |  |  |  |  |  |  |
| CC(C)(C)OC[C@@H]1C(=O)NCCN1C(=O)C[C@H](N)Cc1cc(F)c(F)cc1F [Evogliptin] |  |  | ≥ 30 | dose proportional pharmacokinetics | well tolerated | ~ 0.87 fold | 14 | 0.66 |
